We go through 11 compounds from US20140302568A1, “POLYOL OXIDASE” (NATIONAL UNIVERSITY CORPORATION KAGAWA UNIVERSITY, priority 2011, published 2014).

Structures are written as SMILES.

Assay [1] has as its system polyol oxidase derived from Penicillium sp. KU-1. The experiment in a line: Substrate specificity of the partially purified polyol oxidase (peroxidase method). It counts as biochemical. The conditions noted are these: for Relative activity (%): substrate specificity, partially purified enzyme, relative to D-arabitol = 100. The protocol: As the measurement method for the oxidase activity, a peroxidase method was used. When a D-glucose oxidase is taken as an example, the principle of the peroxidase method is as follows.
In this method, the activity is measured by colorimetric determination of hydrogen peroxide generated by an oxidation reaction. When hydrogen peroxide generated by an oxidation reaction with a substrate is reacted with a peroxidase, an oxidation reaction of ABTS is catalyzed to generate oxidized ABTS. The oxidized ABTS develops a blue color, and therefore, by visual observation or measurement of absorbance at 420 nm, the oxidase activity can be detected. In the measurement of the activity, the crude extract solution obtained by extraction from the wheat bran culture medium was used. Further, as the control, a reaction solution in which water was added in place of the substrate was also prepared in the same manner. After a reaction was allowed to proceed at room temperature, whether or not the color was developed was confirmed by visual observation, and the crude extract solution added to the reaction solution in which the color was developed was determined to have an oxidase activity.
The measurement of the activity of the present enzyme was performed by measuring an increase in absorbance at 420 nm using the same peroxidase method as described above. The enzymatic reaction was initiated by adding D-mannitol, and the absorbance was measured over time for 10 minutes under the reaction conditions of 30° C. using a spectrophotometer U-2010 manufactured by Hitachi Co., Ltd. The reaction was performed by preparing the reaction solution so that the total amount thereof was 1 mL as shown in Table 11. “1 unit” was defined as the amount of the enzyme required to increase the absorbance at 420 nm by 1 for 1 minute.
Among the polyols used in the assay, the activity of the enzyme was high for D-arabitol, erythritol, D-mannitol, and D-sorbitol, which are listed in descending order of activity, and a high activity was not observed for the other polyols.

Assay [2] has as its system polyol oxidase of the A strain. Nature of the assay: Screening for oxidase activity, crude extract of A strain (peroxidase method, visual colour development). It counts as biochemical, Penicillium sp. KU-1 (A strain). The following applies: substrate 0.5 M, room temperature. The protocol: (§1) Isolated microbial cells were inoculated into 5 mL of PDB, followed by shaking incubation at 28° C. for 1 week. In a 200-mL Erlenmeyer flask, 6 g of wheat bran and 15 mL of water were added and mixed with each other, and the resulting mixture was sterilized in an autoclave and used as a wheat bran culture medium. To the thus prepared wheat bran culture medium, the liquid-cultured microbial cells were added together with the total amount of the culture solution, and the resulting mixture was incubated at 28° C. After two-week incubation, an extract solution was prepared by a method described below and used for the measurement of the oxidase activity.
(§2) To the wheat bran culture medium in which the microbial cells were grown, 20 mL of a 10 mM potassium phosphate buffer (pH 7.0) was added, and the cells were well immersed therein and left to stand on ice for 1 hour, and then, the mixture was squeezed with a gauze pad. Thereafter, centrifugation was performed at 4° C. and 12,000 rpm for 18 minutes to remove fine particles, and the resulting solution was used as a crude extract solution.
(§3) In primary screening, a sugar mixed solution and an amino acid mixed solution were used in consideration of efficiency. The crude extract solution in which the activity was detected by the primary screening was subjected to secondary screening using the respective substrates individually at 0.5 M, and the substrate was specified.
(§4) As the measurement method for the oxidase activity, a peroxidase method was used. […]
(§5) In this method, the activity is measured by colorimetric determination of hydrogen peroxide generated by an oxidation reaction. […] The oxidized ABTS develops a blue color, and therefore, by visual observation or measurement of absorbance at 420 nm, the oxidase activity can be detected. […] After a reaction was allowed to proceed at room temperature, whether or not the color was developed was confirmed by visual observation, and the crude extract solution added to the reaction solution in which the color was developed was determined to have an oxidase activity.

For assay [3], the system named is polyol oxidase of the B strain. Nature of the assay: Screening for oxidase activity, crude extract of B strain (peroxidase method, visual colour development). It counts as biochemical, B strain (filamentous fungus). The following applies: substrate 0.5 M, room temperature. The protocol: as §1, §2, §3, §4, §5
For assay [4], the system named is D-glucose oxidase of the C strain. The experiment in a line: Screening for oxidase activity, crude extract of C strain (peroxidase method, visual colour development). In kind it is biochemical, Aspergillus niger (C strain). The following applies: substrate 0.5 M, room temperature. The protocol:
as §1, with “activity. […]” for “activity.”
In primary screening, a sugar mixed solution and an amino acid mixed solution were used in consideration of efficiency. The crude extract solution in which the activity was detected by the primary screening was subjected to secondary screening using the respective substrates individually at 0.5 M, and the substrate was specified. […]
In this method, the activity is measured by colorimetric determination of hydrogen peroxide generated by an oxidation reaction. […] The oxidized ABTS develops a blue color, and therefore, by visual observation or measurement of absorbance at 420 nm, the oxidase activity can be detected. […]

With `OC[C@@H](O)C(O)[C@H](O)CO` [D-arabitol], in assay [1], the “activity of the enzyme for the polyol (in words)” value (“activity of the enzyme” for short) was “high” and the “Relative activity (%)” value stood at 100%.
Take `OC[C@@H](O)[C@@H](O)[C@@H](O)[C@@H](O)CO` [Allitol]: in assay [1], the “activity of the enzyme” value was “low” and the “Relative activity (%)” value was 0.45%. For the same compound, in assay [2], the “reactivity as a substrate of the oxidase of the A strain” value (from here on “reactivity … of the A strain”) is “does not show reactivity”. In addition, the “reactivity as a substrate of the enzyme of the B strain” value (“reactivity … of the B strain” for short) in assay [3] was “uses all of D-sorbitol, D-mannitol, and allitol as a substrate”.
Regarding `OC[C@@H](O)[C@H](O)[C@@H](O)CO` [Xylitol], the “Relative activity (%)” value in assay [1] worked out at 1.2%.
Regarding `OC[C@@H](O)[C@@H](O)[C@@H](O)CO` [Ribitol], the “activity of the enzyme” value in assay [1] is reported as “low”.
For the compound `OC[C@H](O)[C@H](O)[C@H](O)[C@@H](O)CO` [L-talitol], the “Relative activity (%)” value in assay [1] was 0.3%.
`OC[C@@H](O)[C@@H](O)[C@H](O)[C@H](O)CO` [D-mannitol]: in assay [1], the “activity of the enzyme” value is “high” and the “Relative activity (%)” value is on record as 79.0%. Besides, the “reactivity … of the A strain” value in assay [2] is “uses D-sorbitol and D-mannitol as a substrate”. Further, the “reactivity … of the B strain” value in assay [3] was “uses all of D-sorbitol, D-mannitol, and allitol as a substrate”.
Regarding `OCC(O)CO` [Glycerol], in assay [1], the “Relative activity (%)” value was found to be 0.18%.
In the case of `O=C[C@H](O)[C@@H](O)[C@H](O)[C@H](O)CO` [D-glucose], the “reactivity as a substrate of the D-glucose oxidase of the C strain” value in assay [4] is given as “high substrate specificity for D-glucose”.
`OC[C@@H](O)[C@@H](O)[C@H](O)[C@@H](O)CO` [D-sorbitol]: in assay [1], the “activity of the enzyme” value is “high” and the “Relative activity (%)” value amounted to 36.7%. The “reactivity … of the A strain” value in assay [2] is “uses D-sorbitol and D-mannitol as a substrate”. The “reactivity … of the B strain” value in assay [3] is “uses all of D-sorbitol, D-mannitol, and allitol as a substrate”.
Take `OC[C@@H](O)[C@@H](O)CO` [Erythritol]: in assay [1], the “activity of the enzyme” value is “high” and the “Relative activity (%)” value worked out at 80.5%.
For `OC[C@@H](O)[C@H](O)[C@H](O)[C@H](O)CO` [D-talitol] the same measures were “low” and 0.3%.
